Assay results taken from PubChem BioAssay (NCI).
Several values for one entry are separate records, joined by “and”; a condition that tells them apart may be missing. Equal entries are not always repeated.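 Protocol summary: plate cells (96-well), add compound at 5 concentrations, incubate 48 h, interpolate endpoints linearly. GI50 marks 50% less growth. TGI: total growth inhibition.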

Columns and labels:
Assay in all cases: inhibition of tumour cell growth, NCI panel, 48 h
CAKI-1 renal = test system: CAKI-1 renal
HCT-116 colon = test system: HCT-116 colon
MALME-3M melanoma = test system: MALME-3M melanoma
MOLT-4 leukemia = test system: MOLT-4 leukemia
NCI-H226 lung = test system: NCI-H226 lung
OVCAR-5 ovarian = test system: OVCAR-5 ovarian
RPMI-8226 leukemia = test system: RPMI-8226 leukemia
SF-268 CNS = test system: SF-268 CNS
SF-539 CNS = test system: SF-539 CNS
UO-31 renal = test system: UO-31 renal

Row | Compound | TGI (CAKI-1 renal) [µM] | TGI (HCT-116 colon) | TGI (MALME-3M melanoma) | TGI (MOLT-4 leukemia) | TGI (NCI-H226 lung) [µM] | TGI (OVCAR-5 ovarian) | TGI (RPMI-8226 leukemia) [µM] | TGI (SF-268 CNS) | TGI (SF-539 CNS) | TGI (UO-31 renal) | GI50 (CAKI-1 renal) [µM] | GI50 (HCT-116 colon) [µM] | GI50 (MALME-3M melanoma) [µM] | GI50 (MOLT-4 leukemia) [µM] | GI50 (NCI-H226 lung) [µM] | GI50 (OVCAR-5 ovarian) [µM] | GI50 (RPMI-8226 leukemia) [µM] | GI50 (SF-268 CNS) [µM] | GI50 (SF-539 CNS) [µM] | GI50 (UO-31 renal) [µM]
1 | COC(=O)N/N=C(\c1nc2ccc(Cl)cc2[nH]c1=O)C(O)c1ccc([N+](=O)[O-])cc1 (configuration not stated) | > 100 | > 100 µM | > 100 µM | > 100 µM | > 100 | > 100 µM | > 100 | > 100 µM | > 100 µM | > 100 µM |  |  |  |  |  |  |  |  |  | 
2 | O=C1OC(c2ccccc2)=N/C1=C\c1ccc(N(CCCl)CCCl)cc1 | > 100 | > 100 µM | > 100 µM | > 79.9 µM | > 100 | > 100 µM | > 100 | > 100 µM | > 100 µM | > 100 µM |  |  |  |  |  |  |  |  |  | 
3 | O=C(O)C12C3C4C1C1C2C3C41I (configuration not stated) | > 100 | > 100 µM | > 100 µM | > 100 µM | > 100 | > 100 µM | > 100 | > 100 µM | > 100 µM | > 100 µM |  |  |  |  |  |  |  |  |  | 
4 | Cc1c(-c2ccc(N3CCc4cccc(C(=O)Nc5nc6ccccc6s5)c4C3)nc2C(=O)O)cnn1CC12CC3CC(CC(C3)C1)C2 | 23.4 | 14.9 µM | 33.7 µM |  | 50.6 | 32.4 µM | 2.86 | 24.8 µM | 21.8 µM | 9.36 µM | 8.35 | 3.23 | 14.3 | < 0.01 | 13.7 | 11.4 | < 0.0177 | 8.05 | 6.51 | 2.6
5 | Cn1c(=O)c(Oc2ccc(F)cc2F)cc2cnc(NC3CCC(O)CC3)nc21 (configuration not stated) | > 25 | > 25 µM | > 25 µM | > 25 µM | > 25 | > 25 µM | > 25 | > 25 µM | > 25 µM | > 25 µM | > 25 | > 25 | > 25 | > 25 | > 25 | > 25 | > 25 | > 25 | > 25 | 12.1
6 | Cc1c(N)nc(C2CC(=O)N2CC(N)C(N)=O)nc1C(=O)NC(C(=O)NC(C)C(O)C(C)C(=O)NC(C(=O)NCCc1nc(-c2nc(C(=O)NCCNCC(C)O)cs2)cs1)C(C)O)C(OC1OC(CO)C(O)C(O)C1OC1OC(CO)C(O)C(OC(N)=O)C1O)c1cnc[nH]1 (configuration not stated) |  | 50 µM and 24.3 µM | 22.5 µM and 11.9 µM | 50 µM and 6.66 µM | 0.261 | 50 µM and 57.4 µM | > 50 | 32.6 µM and > 23.2 µM | 1.32 µM and 0.255 µM | 17 µM and 21.6 µM | 0.0234 | 6.97 | 1.16 | 4.23 |  | 9.82 | > 50 | 1.69 | 0.0499 | 0.974
7 | CCC(=C(c1ccc(OCCN(CC)CC)cc1)c1ccc(OCCN(CC)CC)cc1)c1ccc(Cl)cc1 | 0.984 | 0.995 µM | 1.07 µM | 1.3 µM | 1.48 | 1.06 µM | 1.64 | 1.23 µM | 1.04 µM | 0.94 µM | 0.515 | 0.508 | 0.567 | 0.583 | 0.679 | 0.559 | 0.714 | 0.604 | 0.552 | 0.484
8 | CN1C/C(=C\c2ccco2)c2nc(N)nc(-c3ccco3)c2C1 | > 100 | > 100 µM | > 100 µM | > 100 µM | > 100 | > 100 µM | > 100 | > 100 µM | > 100 µM | > 100 µM |  |  |  |  |  |  |  |  |  | 
9 | Cc1c(C(=O)C/C(=N/NC(=O)CC#N)C(N)=O)[n+](=O)c2ccccc2n1[O-] | > 100 | 94 µM | > 100 µM | > 100 µM | > 100 | > 100 µM | > 100 | > 100 µM | > 100 µM | > 100 µM |  |  |  |  |  |  |  |  |  | 
10 | Nc1ccc2ncc(Nc3ccc(Cl)c(Cl)c3)nc2c1 | 67.3 | 57.3 µM | 55.8 µM | 65.1 µM | 62.6 | > 100 µM | > 100 | > 100 µM | 40.4 µM | > 100 µM |  |  |  |  |  |  |  |  |  | 
